Test results from US20230340012A1, “NATURAL AND SYNTHETIC COMPOUNDS FOR TREATING CANCER AND OTHER DISEASES” (PACIFIC ARROW LIMITED, priority 2009, published 2023).

System: cancer cells
Assay: MTT cytotoxic assay of esterification products (Cytotoxicity activity)
Assay type: cell-based, human
Outline: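 Cytotoxicity was read by MTT (Carmichael method, modified), with cells seeded 24 h ahead of treatment. Sixteen human cancer lines spanning bone, lung, bladder, ovary, colon, pancreas, prostate, skin, mouth, kidney, breast, liver, brain, leukemia and cervix were used. Test samples were acyl chloride esterification products of triterpenes, as mixtures or HPLC-purified compounds.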

[1] = MTT cytotoxic assay, isolated esterification products of E4A
[2] = E4A esterified with Acetyl chloride (Acy = Acetyl), compounds isolated with HPLC

SMILES	Cytotoxicity activity [1]	Cytotoxicity activity [2]
CCC(CC)C(=O)OCC1(C)C(OC(=O)C(CC)CC)CCC2(C)C1CCC1(C)C2CC=C2C3CC(C)(C)C(O)C(O)C3(COC(=O)C(CC)CC)C(OC(=O)C(CC)CC)CC21C (stereo not drawn) [Compound E10]	weak	–
CCC(CC)C(=O)OCC1(C)C(OC(=O)C(CC)CC)CCC2(C)C1CCC1(C)C2CC=C2C3CC(C)(C)C(OC(=O)C(CC)CC)C(O)C3(COC(=O)C(CC)CC)C(O)CC21C (stereo not drawn) [Compound E11]	weak	–
CCC(CC)C(=O)OCC1(C)C(O)CCC2(C)C1CCC1(C)C2CC=C2C3CC(C)(C)C(O)C(OC(=O)C(CC)CC)C3(COC(=O)C(CC)CC)C(OC(=O)C(CC)CC)CC21C (stereo not drawn) [Compound E12]	weak	–
CCC(CC)C(=O)OCC1(C)C(O)CCC2(C)C1CCC1(C)C2CC=C2C3CC(C)(C)C(OC(=O)C(CC)CC)C(O)C3(COC(=O)C(CC)CC)C(OC(=O)C(CC)CC)CC21C (stereo not drawn) [Compound E13]	weak	–
CCC(CC)C(=O)OCC1(C)C(OC(=O)C(CC)CC)CCC2(C)C1CCC1(C)C2CC=C2C3CC(C)(C)C(O)C(OC(=O)C(CC)CC)C3(COC(=O)C(CC)CC)C(O)CC21C (stereo not drawn) [Compound E14]	weak	–
CCC(CC)C(=O)OCC1(C)C(OC(=O)C(CC)CC)CCC2(C)C1CCC1(C)C2CC=C2C3CC(C)(C)C(OC(=O)C(CC)CC)C(OC(=O)C(CC)CC)C3(COC(=O)C(CC)CC)C(O)CC21C (stereo not drawn) [Compound E15]	weak	–
CCC(CC)C(=O)OCC1(C)C(O)CCC2(C)C1CCC1(C)C2CC=C2C3CC(C)(C)C(OC(=O)C(CC)CC)C(OC(=O)C(CC)CC)C3(COC(=O)C(CC)CC)C(OC(=O)C(CC)CC)CC21C (stereo not drawn) [Compound E16]	weak	–
CCC(CC)C(=O)OCC1(C)C(OC(=O)C(CC)CC)CCC2(C)C1CCC1(C)C2CC=C2C3CC(C)(C)C(OC(=O)C(CC)CC)C(O)C3(COC(=O)C(CC)CC)C(OC(=O)C(CC)CC)CC21C (stereo not drawn) [Compound E17]	weak	–
CCC(CC)C(=O)OCC1(C)C(OC(=O)C(CC)CC)CCC2(C)C1CCC1(C)C2CC=C2C3CC(C)(C)C(O)C(OC(=O)C(CC)CC)C3(COC(=O)C(CC)CC)C(OC(=O)C(CC)CC)CC21C (stereo not drawn) [Compound E18]	weak	–
CCC(CC)C(=O)OCC1(C)C(OC(=O)C(CC)CC)CCC2(C)C1CCC1(C)C2CC=C2C3CC(C)(C)C(OC(=O)C(CC)CC)C(OC(=O)C(CC)CC)C3(COC(=O)C(CC)CC)C(OC(=O)C(CC)CC)CC21C (stereo not drawn) [Compound E19]	none	–
CCC(CC)C(=O)OCC12C(O)CC3(C)C(=CCC4C5(C)CCC(O)C(C)(CO)C5CCC43C)C1CC(C)(C)C(OC(=O)C(CC)CC)C2OC(=O)C(CC)CC (stereo not drawn) [Compound E20]	moderate	–
CCC(CC)C(=O)OCC1(C)C(O)CCC2(C)C1CCC1(C)C2CC=C2C3CC(C)(C)C(OC(=O)C(CC)CC)C(OC(=O)C(CC)CC)C3(CO)C(O)CC21C (stereo not drawn) [Compound E21]	moderate	–
CCC(CC)C(=O)OC1C(OC(=O)C(CC)CC)C2(CO)C(OC(=O)C(CC)CC)CC3(C)C(=CCC4C5(C)CCC(O)C(C)(CO)C5CCC43C)C2CC1(C)C (stereo not drawn) [Compound E22]	moderate	–
CCC(CC)C(=O)OC1C(OC(=O)C(CC)CC)C2(CO)C(O)CC3(C)C(=CCC4C5(C)CCC(OC(=O)C(CC)CC)C(C)(CO)C5CCC43C)C2CC1(C)C (stereo not drawn) [Compound E23]	moderate	–
CCC(CC)C(=O)OC1C(OC(=O)C(CC)CC)C2(CO)C(O)CC3(C)C(=CCC4C5(C)CCC(O)C(C)(CO)C5CCC43C)C2CC1(C)C (stereo not drawn) [Compound E24]	moderate	–
CCC(CC)C(=O)OCC12C(O)CC3(C)C(=CCC4C5(C)CCC(O)C(C)(CO)C5CCC43C)C1CC(C)(C)C(OC(=O)C(CC)CC)C2O (stereo not drawn) [Compound E25]	moderate	–
CCC(CC)C(=O)OCC12C(O)CC3(C)C(=CCC4C5(C)CCC(O)C(C)(CO)C5CCC43C)C1CC(C)(C)C(O)C2OC(=O)C(CC)CC (stereo not drawn) [Compound E26]	moderate	–
CCC(CC)C(=O)OCC12C(O)CC3(C)C(=CCC4C5(C)CCC(OC(=O)C(CC)CC)C(C)(CO)C5CCC43C)C1CC(C)(C)C(O)C2O (stereo not drawn) [Compound E27]	moderate	–
CCC(CC)C(=O)OCC12C(OC(=O)C(CC)CC)CC3(C)C(=CCC4C5(C)CCC(O)C(C)(CO)C5CCC43C)C1CC(C)(C)C(O)C2O (stereo not drawn) [Compound E28]	moderate	–
CCC(CC)C(=O)OCC1(C)C(O)CCC2(C)C1CCC1(C)C2CC=C2C3CC(C)(C)C(OC(=O)C(CC)CC)C(O)C3(CO)C(O)CC21C (stereo not drawn) [Compound E29]	moderate	–
CCC(CC)C(=O)OCC1(C)C(O)CCC2(C)C1CCC1(C)C2CC=C2C3CC(C)(C)C(O)C(OC(=O)C(CC)CC)C3(CO)C(O)CC21C (stereo not drawn) [Compound E30]	moderate	–
CCC(CC)C(=O)OCC1(C)C(OC(=O)C(CC)CC)CCC2(C)C1CCC1(C)C2CC=C2C3CC(C)(C)C(O)C(O)C3(CO)C(O)CC21C (stereo not drawn) [Compound E31]	moderate	–
CCC(CC)C(=O)OCC1(C)C(O)CCC2(C)C1CCC1(C)C2CC=C2C3CC(C)(C)C(O)C(O)C3(CO)C(OC(=O)C(CC)CC)CC21C (stereo not drawn) [Compound E32]	moderate	–
C/C=C(/C)C(=O)OC[C@]1(C)[C@@H]2CC[C@]3(C)[C@H](CC=C4[C@@H]5CC(C)(C)[C@@H](O)[C@H](O)[C@]5(CO)[C@H](O)C[C@]43C)[C@@]2(C)CC[C@@H]1OC(=O)/C(C)=C\C [Compound G31]	moderate	–

SMILES	Cytotoxicity activity [1]	Cytotoxicity activity [2]
CC(=O)OCC1(C)C(O)CCC2(C)C1CCC1(C)C2CC=C2C3CC(C)(C)C(O)C(O)C3(CO)C(O)CC21C (stereo not drawn) [Compound H1]	–	moderate
CC(=O)OCC12C(O)CC3(C)C(=CCC4C5(C)CCC(O)C(C)(CO)C5CCC43C)C1CC(C)(C)C(O)C2O (stereo not drawn) [Compound H2]	–	moderate
CC(=O)OCC1(C)C(O)CCC2(C)C1CCC1(C)C2CC=C2C3CC(C)(C)C(O)C(O)C3(COC(C)=O)C(O)CC21C (stereo not drawn) [Compound H3]	–	strong
CC(=O)OCC1(C)C(O)CCC2(C)C1CCC1(C)C2CC=C2C3CC(C)(C)C(OC(C)=O)C(O)C3(COC(C)=O)C(O)CC21C (stereo not drawn) [Compound H4]	–	moderate
CC(=O)OCC1(C)C(O)CCC2(C)C1CCC1(C)C2CC=C2C3CC(C)(C)C(O)C(OC(C)=O)C3(COC(C)=O)C(O)CC21C (stereo not drawn) [Compound H5]	–	moderate
CC(=O)OCC1(C)C(OC(C)=O)CCC2(C)C1CCC1(C)C2CC=C2C3CC(C)(C)C(O)C(O)C3(COC(C)=O)C(O)CC21C (stereo not drawn) [Compound H6]	–	moderate
CC(=O)OCC1(C)C(O)CCC2(C)C1CCC1(C)C2CC=C2C3CC(C)(C)C(O)C(O)C3(COC(C)=O)C(OC(C)=O)CC21C (stereo not drawn) [Compound H7]	–	moderate
CC(=O)OCC1(C)C(O)CCC2(C)C1CCC1(C)C2CC=C2C3CC(C)(C)C(OC(C)=O)C(OC(C)=O)C3(COC(C)=O)C(O)CC21C (stereo not drawn) [Compound H8]	–	weak
CC(=O)OCC1(C)C(OC(C)=O)CCC2(C)C1CCC1(C)C2CC=C2C3CC(C)(C)C(O)C(OC(C)=O)C3(COC(C)=O)C(O)CC21C (stereo not drawn) [Compound H9]	–	weak
CC(=O)OCC1(C)C(OC(C)=O)CCC2(C)C1CCC1(C)C2CC=C2C3CC(C)(C)C(O)C(O)C3(COC(C)=O)C(OC(C)=O)CC21C (stereo not drawn) [Compound H10]	–	weak
CC(=O)OCC1(C)C(OC(C)=O)CCC2(C)C1CCC1(C)C2CC=C2C3CC(C)(C)C(OC(C)=O)C(O)C3(COC(C)=O)C(O)CC21C (stereo not drawn) [Compound H11]	–	weak
CC(=O)OCC1(C)C(O)CCC2(C)C1CCC1(C)C2CC=C2C3CC(C)(C)C(O)C(OC(C)=O)C3(COC(C)=O)C(OC(C)=O)CC21C (stereo not drawn) [Compound H12]	–	weak
CC(=O)OCC1(C)C(O)CCC2(C)C1CCC1(C)C2CC=C2C3CC(C)(C)C(OC(C)=O)C(O)C3(COC(C)=O)C(OC(C)=O)CC21C (stereo not drawn) [Compound H13]	–	weak
CC(=O)OCC1(C)C(OC(C)=O)CCC2(C)C1CCC1(C)C2CC=C2C3CC(C)(C)C(O)C(OC(C)=O)C3(COC(C)=O)C(O)CC21C (stereo not drawn) [Compound H14]	–	weak
CC(=O)OCC1(C)C(OC(C)=O)CCC2(C)C1CCC1(C)C2CC=C2C3CC(C)(C)C(OC(C)=O)C(OC(C)=O)C3(COC(C)=O)C(O)CC21C (stereo not drawn) [Compound H15]	–	weak
CC(=O)OCC1(C)C(O)CCC2(C)C1CCC1(C)C2CC=C2C3CC(C)(C)C(OC(C)=O)C(OC(C)=O)C3(COC(C)=O)C(OC(C)=O)CC21C (stereo not drawn) [Compound H16]	–	weak
CC(=O)OCC1(C)C(OC(C)=O)CCC2(C)C1CCC1(C)C2CC=C2C3CC(C)(C)C(OC(C)=O)C(O)C3(COC(C)=O)C(OC(C)=O)CC21C (stereo not drawn) [Compound H17]	–	weak
CC(=O)OCC1(C)C(OC(C)=O)CCC2(C)C1CCC1(C)C2CC=C2C3CC(C)(C)C(O)C(OC(C)=O)C3(COC(C)=O)C(OC(C)=O)CC21C (stereo not drawn) [Compound H18]	–	weak
CC(=O)OCC1(C)C(OC(C)=O)CCC2(C)C1CCC1(C)C2CC=C2C3CC(C)(C)C(OC(C)=O)C(OC(C)=O)C3(COC(C)=O)C(OC(C)=O)CC21C (stereo not drawn) [Compound H19]	–	none
CC(=O)OCC12C(O)CC3(C)C(=CCC4C5(C)CCC(O)C(C)(CO)C5CCC43C)C1CC(C)(C)C(OC(C)=O)C2OC(C)=O (stereo not drawn) [Compound H20]	–	moderate
CC(=O)OCC1(C)C(O)CCC2(C)C1CCC1(C)C2CC=C2C3CC(C)(C)C(OC(C)=O)C(OC(C)=O)C3(CO)C(O)CC21C (stereo not drawn) [Compound H21]	–	moderate
CC(=O)OC1C(OC(C)=O)C2(CO)C(OC(C)=O)CC3(C)C(=CCC4C5(C)CCC(O)C(C)(CO)C5CCC43C)C2CC1(C)C (stereo not drawn) [Compound H22]	–	moderate
CC(=O)OC1C(OC(C)=O)C2(CO)C(O)CC3(C)C(=CCC4C5(C)CCC(OC(C)=O)C(C)(CO)C5CCC43C)C2CC1(C)C (stereo not drawn) [Compound H23]	–	moderate
CC(=O)OC1C(OC(C)=O)C2(CO)C(O)CC3(C)C(=CCC4C5(C)CCC(O)C(C)(CO)C5CCC43C)C2CC1(C)C (stereo not drawn) [Compound H24]	–	moderate
